According to patent US11479534B2, “Compound and use thereof in medicine” (Changsha Hooz Bioscience And Technology Co., Ltd, priority 2018, dated 2022):

Legend:
RWPE1 cells = experiment: MTS cell survival assay, RWPE1; assay type: cell-based; conditions: Homo sapiens, RWPE-1, RWPE1 normal cells, 72 hours
Procedure: (§1) Culturing prostate cancer cells PC3 and DU145 cells, as well as non-cancerous normal cells (5000 cells/well) in a 96-well cell culture dish, and then using different doses of said compound M3 to treat prostate cancer cells PC3 and DU145 cells and normal […] cells RWPE1 and HPrEC. After 72 hours, detecting the survival rate of the cells by MTS method, and calculate […] of said compound M3 for different cells using software.

HPrEC cells = experiment: MTS cell survival assay, HPrEC; assay type: cell-based; conditions: HPrEC normal cells, 72 hours
Procedure: as §1

[1] = system: prostate cancer cells PC3; experiment: MTS cell survival assay, PC3; assay type: cell-based
Procedure: as §1

UHRF1 = target: T1, UHRF1 (Homo sapiens, UniProt Q96T88); experiment: Western blot of UHRF1 protein level in treated DU145 cells; assay type: cell-based
T1 construct: reduces the protein level of the oncogene UHRF1 in prostate cancer cells in a dose-dependent manner; endogenous in cells; host or cells: DU145
T1 sequence (Q96T88 1-793): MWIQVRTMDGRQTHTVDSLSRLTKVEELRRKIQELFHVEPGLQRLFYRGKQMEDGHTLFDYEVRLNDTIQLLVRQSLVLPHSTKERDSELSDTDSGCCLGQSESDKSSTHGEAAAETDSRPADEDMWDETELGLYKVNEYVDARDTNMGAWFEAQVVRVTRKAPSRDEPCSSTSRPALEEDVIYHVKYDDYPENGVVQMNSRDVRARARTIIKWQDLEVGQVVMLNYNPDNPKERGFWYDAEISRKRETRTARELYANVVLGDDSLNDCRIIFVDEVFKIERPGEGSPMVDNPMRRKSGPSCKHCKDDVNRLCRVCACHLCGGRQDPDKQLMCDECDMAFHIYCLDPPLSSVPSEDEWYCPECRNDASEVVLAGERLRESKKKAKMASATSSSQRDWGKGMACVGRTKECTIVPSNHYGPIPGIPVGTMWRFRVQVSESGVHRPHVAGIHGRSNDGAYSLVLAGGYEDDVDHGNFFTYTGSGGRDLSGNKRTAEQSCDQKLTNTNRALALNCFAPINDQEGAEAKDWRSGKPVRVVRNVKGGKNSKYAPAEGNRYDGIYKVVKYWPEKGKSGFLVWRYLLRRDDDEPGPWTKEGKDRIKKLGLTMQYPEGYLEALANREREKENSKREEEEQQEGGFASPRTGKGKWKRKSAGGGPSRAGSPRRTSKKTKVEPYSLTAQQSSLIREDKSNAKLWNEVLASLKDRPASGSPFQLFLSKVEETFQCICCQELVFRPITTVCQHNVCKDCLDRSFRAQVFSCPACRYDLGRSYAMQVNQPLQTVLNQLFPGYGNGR
Procedure: (§2) Culturing a same amount of prostate cancer cell line DU145 in each well of a 6-well culture dish, allowing cell adhesion for 24 hours, and then using different doses of said compound M3 (50, 100 and 150 μM) to treat the prostate cancer cell DU145, and using said compound M1 as a control drug. After 24 hours, harvest the cells for Western blot to detect the protein levels of UHRF1, histone H3 and acetylated histone H3. […] The results of this experiment verifies that the compound M3 of the present invention specifically dual-targeting UHRF1 and HDAC molecules.

[2] = system: prostate cancer cells DU145; experiment: MTS cell survival assay, DU145; assay type: cell-based; conditions: Homo sapiens, DU-145, DU145, 72 hours, read-out: half inhibitory dose (IC50)
Procedure: as §1

[3] = Safety in nude mouse: weight and serum biochemical indicators; assay type: in vivo; conditions: 200 mg/kg/day intragastrically, 4 weeks
Procedure: Intragastrically administering the compound M3 of the present invention (200 mg/kg/day) in an immunodeficient nude mouse once a day, 5 days a week with 2 days rest in between, for a total of 4 weeks of continuous treatment; using solvent DMSO as a control. Weight of the nude mouse is measured before treatment and every 3 days after the treatment begins. When the experiment ends, extract blood from the nude mouse, separate blood serum, and detect the changes in biochemical indicators, including: aspartate aminotransferase (AST) and alanine aminotransferase (ALT) indicative of liver function, blood urea nitrogen (BUN) and creatinine (CREA) indicative of kidney function, and creatine kinase (CK) and l lactate dehydrogenase (LDH-L) indicative of heart function, to evaluate the effect of […] on heart, liver and kidney functions.

[4] = system: prostate cancer DU145 cells xenograft tumor; experiment: Subcutaneous xenograft model of prostate cancer DU145 cells in nude mouse; assay type: in vivo; conditions: 100 mg/kg/day intragastrically, 5 days a week, 4 weeks; compared with control compound M1
Procedure: Establishing a subcutaneous xenograft model of prostate cancer DU145 cells (1×106) in immunodeficient mouse by subcutaneous injection, allowing around 2-3 weeks for the xenograft to grow into a size of around 250 mm3, and then intragastrically administering the compound M3 of the present invention (100 mg/kg/day) once a day, 5 days a week with 2 days rest in between, for a total of 4 weeks of continuous treatment. Said […] and solvent DMSO are used as controls. Tumor size is measured before treatment and every 3 days after treatment begins. The size of the tumor is calculated according to the formula V=length×width 2/2.

DNMT1 = experiment: Western blot of DNMT1 protein expression in treated DU145 cells; assay type: cell-based; conditions: 24 hours, Western blot (FIG. 1)
HDAC1 [5] = experiment: Western blot of acetylated histone H3 and total histone H3 in treated DU145 cells (HDAC targeting); assay type: cell-based; conditions: DU145 cells, 50, 100 and 150 μM, 24 hours, Western blot (FIG. 1)
Procedure: as §2

HDAC1 [6] = target: T2, HDAC1 (Homo sapiens, UniProt Q13547); experiment: as above; assay type: cell-based; conditions: FIG. 6, M2 and M3 under the same dose
T2 construct: endogenous in cells; host or cells: DU145
T2 sequence (Q13547 whole entry): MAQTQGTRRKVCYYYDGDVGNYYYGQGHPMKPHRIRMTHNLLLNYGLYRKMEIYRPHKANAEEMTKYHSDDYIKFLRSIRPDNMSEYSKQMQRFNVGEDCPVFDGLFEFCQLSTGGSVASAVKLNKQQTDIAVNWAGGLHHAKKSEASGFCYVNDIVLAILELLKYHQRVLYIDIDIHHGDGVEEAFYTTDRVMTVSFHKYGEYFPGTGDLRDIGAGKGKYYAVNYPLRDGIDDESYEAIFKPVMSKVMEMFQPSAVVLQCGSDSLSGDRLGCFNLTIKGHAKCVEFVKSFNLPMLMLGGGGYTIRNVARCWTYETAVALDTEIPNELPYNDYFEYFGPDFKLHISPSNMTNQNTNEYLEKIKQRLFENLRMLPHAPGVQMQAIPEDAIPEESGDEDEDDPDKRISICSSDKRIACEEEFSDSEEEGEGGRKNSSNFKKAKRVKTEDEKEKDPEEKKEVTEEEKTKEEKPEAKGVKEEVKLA
Procedure: as §2

O=C(CCCCCCC(=O)Nc1c[nH]c(=O)[nH]c1=O)NO [M3, N1-(carbonyl-5-aminouracil)-N8-octylhydroxyamide]
IC50 (RWPE1 cells): > 300 µM | IC50 (HPrEC cells): > 300 µM | IC50 ([1]; PC3, 72 hours, MTS, read-out: half inhibitory dose (IC50)): < 50 µM | selectivity for killing prostate cancer cells ([1]; PC3 and DU145 compared with RWPE1 and HPrEC): good selectivity for killing prostate cancer cells | protein level of UHRF1 (UHRF1; DU145 cells, 50, 100 and 150 μM, 24 hours, Western blot (FIG. 1)): specifically reduces the protein level of the oncogene UHRF1 in prostate cancer cells in a dose-dependent manner | protein level of UHRF1 target (UHRF1; FIG. 6, M2 and M3 under the same dose): significantly reduces the protein stability of UHRF1 | IC50 [2]: < 50 µM | weight of the nude mouse [3]: does not significantly reduce the weight | heart function (CK, LDH-L) ([3]; blood serum): no significant effect | kidney function (BUN, CREA) ([3]; blood serum): no significant effect | liver function (AST, ALT) ([3]; blood serum): no significant effect | tumor growth [4]: significantly reduces tumor growth compared with the control compound M1 | protein expression of DNMT1 (DNMT1): significantly reduced | acetylation level of histone H3 (HDAC1 [5]): causes an increase in acetylation level of histone H3 | total histone H3 level (HDAC1 [5]): not affected | activity of HDAC1 (acetylated histone H3) (HDAC1 [6]): significantly inhibits the activity of HDAC1
